# Source: patent US9611295B2, “Treatment of IL-17 mediated disease by blocking SEFIR-SEFIR interactions” (THE CLEVELAND CLINIC FOUNDATION, priority 2011, dated 2017)
# Columns and labels:
# [1] = system: IL-17-dependent signaling; experiment: IL-17-dependent signaling in MEFs by Western blotting (pIκB, pJNK, pERK, pp38 MAPK); assay type: cell-based, mouse
# Description: FIG. 4 provides data showing that a cell-permeable CC′ loop decoy peptide disrupts the interaction between Act1 and IL-17RA and inhibits IL-17R and IL-25R signaling. FIG. 4A provides sequences of Antennapedia homeodomain (Antp) (SEQ ID NO: 11)and decoy peptides (SEQ ID NOS 23-25 and 17, respectively, in order of appearance) with the Antp sequence underlined. FIG. 4B provides flow cytometry results based on experiments in which MEFs expressing IL-17RB were incubated for 2 or 24 hours with the indicated FITC-tagged peptides (200 μM) and were then analyzed by flow cytometry. […] The percentages of FITC-positive cells in the treated samples are shown. […] FIG. 4D provides Western blot results of experiments in which MEFs expressing IL-17RB were incubated with the indicated peptides (200 μM) for 24 hours after which they were treated with IL-17 or IL-25 and then analyzed by Western blotting with the indicated antibodies. […] The abundances of Cxcl1 and Il13 mRNAs were then measured by real-time RT-PCR. […]
# (§1) Decoy peptides are based on surface-exposed regions of the primary sequence of a protein to mimic a putative interaction interface. […] These decoy peptides were also tagged at their C-termini with fluorescein isothiocyanate (FITC) to enable their cell-penetrating efficiency to be evaluated by flow cytometric sanalysis. […]
# [2] = system: IL-25-induced pulmonary inflammation; experiment: IL-25-induced pulmonary inflammation in BALB/c mice; assay type: in vivo, mouse
# Description: FIG. 5 provides bar graph and staining data showing that a cell-permeable CC′ loop decoy peptide inhibits IL-17- and IL-25-induced pulmonary inflammation. Wild-type (WT) female BALB/c mice (n=4 mice per group) were pretreated with DMSO, scrambled peptide, or the CC′ loop decoy peptide for 4 hours, after which they were administered saline, IL-17, or IL-25 intranasally. Mice were sacrificed and analyzed 16 hours after injection with IL-17 or 4 days after injection with IL-25. […] All experiments were performed three times. *P<0.05.
# It has been shown that Act1 plays an essential role in IL-17- and IL-25-mediated pulmonary inflammation. Thus, the inventors examined whether the Act1 SEFIR domain CC′ loop decoy peptide ameliorated IL-17- and IL-25-induced airway inflammation in vivo. BALB/c mice were pretreated with scrambled peptide or with the Act1 SEFIR domain CC′ loop decoy peptide for 4 hours, after which we injected the mice intranasally with IL-17 or IL-25. […] Consistently, IL-17-induced lung and airway recruitment of granulocytes was reduced in mice pretreated with the CC′ loop decoy peptide compared to that in mice pretreated with the scrambled peptide (FIG. 5C). The lower grade of pulmonary inflammation in the mice treated with the CC′ loop decoy peptide correlated with the decreased IL-17-dependent expression of genes encoding MCP-1 and GM-CSF in the lung tissues (FIG. 5D). […] IL-25-induced lung and airway recruitment of granulocytes, predominantly eosinophils, as well as mucin production, as determined by Periodic acid-Schiff (PAS) staining, were reduced in mice pretreated with the CC′ loop decoy peptide compared to that in mice pretreated with the scrambled peptide (FIG. 5G). The decreased pulmonary inflammation in […] correlated with decreased expression of genes encoding the TH2-type cytokines IL-5 and IL-13 in the lungs (FIG. 5H).
# Intranasal injection of mice with IL-17 and IL-25: Wild-type BALB/c female mice were pretreated with dimethyl sulfoxide (DMSO, the solvent for peptides), scrambled peptide, or the CC′ loop decoy peptide for 4 hours, after which they underwent intranasal administration of saline, IL-17 (4 μg/mouse), or IL-25 (4 μg/mouse). For IL-25-treated mice, decoy peptides were administrated daily through intranasal injection after pretreatment. Mice were anesthetized with isoflurane and sacrificed. BAL fluid was collected 16 hours after injection with IL-17 or 4 days after injection with IL-25. A total of 0.7 ml of HL-1 medium (BioWhittaker®) was used to obtain BAL fluid through trachea with a blunt needle and a 1-ml syringe. Cytospin slide preparations were obtained with a Shandon CytoSpin III Cytocentrifuge (Shandon/Thermo Scientific). Differential leukocyte counts were obtained on cytospin slide preparations after incubation with Diff Quik Giemsa stain. Cytokines in the BAL were analyzed by MultipleX plate (Invitrogen®). H&E and PAS staining were performed on lung tissues after fixation in 10% neutral-buffered formalin and paraffin embedding to detect pulmonary inflammation and for assessment of goblet cell metaplasia and mucin accumulation in airway epithelial cells.
# [3] = system: IL-25-dependent signaling; experiment: IL-25-dependent signaling in MEFs by Western blotting (pIκB, pJNK, pERK, pp38 MAPK); assay type: cell-based, mouse
# Description: FIG. 4 provides data showing that a cell-permeable CC′ loop decoy peptide disrupts the interaction between Act1 and IL-17RA and inhibits IL-17R and IL-25R signaling. FIG. 4A provides sequences of Antennapedia homeodomain (Antp) (SEQ ID NO: 11)and decoy peptides (SEQ ID NOS 23-25 and 17, respectively, in order of appearance) with the Antp sequence underlined. FIG. 4B provides flow cytometry results based on experiments in which MEFs expressing IL-17RB were incubated for 2 or 24 hours with the indicated FITC-tagged peptides (200 μM) and were then analyzed by flow cytometry. […] The percentages of FITC-positive cells in the treated samples are shown. FIG. 4C provides Western blot results of experiments in which HeLa cells were cotransfected with plasmids encoding FLAG-tagged mAct1 and V5-tagged IL-17RA and were cultured for 24 hours, after which they were incubated for 24 hours with the indicated peptides (200 μM). IL-17RA was immunoprecipitated from the samples with antibody against the V5 tag, and samples were then subjected to Western blotting analysis with the indicated antibodies. FIG. 4D provides Western blot results of experiments in which MEFs expressing IL-17RB were incubated with the indicated peptides (200 μM) for 24 hours after which they were treated with IL-17 or IL-25 and then analyzed by Western blotting with the indicated antibodies. FIG. 4E provides bar graphs showing the results of experiments in which MEFs expressing IL-17RB were incubated with the indicated peptides (200 μM) for 24 hours, after which they were treated with IL-17 or IL-25 for 3 hours. The abundances of Cxcl1 and Il13 mRNAs were then measured by real-time RT-PCR. […]
# as §1
# [4] = MEFs expressing IL-17RB, peptides 200 μM, 24 hours
sequence,measurement,setting,value
DRQIKIWFQNRRMKWKKLDEDEHGLHTKY [CC′ loop decoy peptide],"IL-17-dependent signaling (pIκB, pJNK, pERK, pp38 MAPK)",[1]; [4],partly attenuated
same,dose and time dependence of inhibition of IL-17-dependent signaling and gene expression,[1]; data not shown,dose-and time-dependent manner
same,dose dependence of inhibition of IL-25-induced pulmonary inflammation,[2]; data not shown,dose-dependent manner
same,IL-5 in BAL,"[2]; intranasal IL-25, 4 days",substantially attenuated
same,IL-13 in BAL,"[2]; intranasal IL-25, 4 days",substantially attenuated
same,IL-25-induced eosinophilia (eosinophils in BAL),"[2]; intranasal IL-25, 4 days, vs scrambled peptide, listed as Act1 SEFIR domain CC′ loop decoy peptide",substantially attenuated
same,IL-25-induced eosinophilia (eosinophils in BAL),"[2]; intranasal IL-25, 4 days, vs scrambled peptide, listed as CC′ decoy peptide",reduced accumulation
same,"IL-25-induced lung and airway recruitment of granulocytes, predominantly eosinophils (H&E)",[2]; vs scrambled peptide,reduced
same,mucin production (PAS staining),[2]; vs scrambled peptide,reduced
same,"IL-25-dependent signaling (pIκB, pJNK, pERK, pp38 MAPK)",[3]; [4],partly attenuated
same,dose and time dependence of inhibition of IL-25-dependent signaling and gene expression,[3]; data not shown,dose-and time-dependent manner
